Experiment: Human HepG2 cell viability assay in 384 well format
Assay type: toxicity, cell-based
Parameters: dose 125 nL, time 70.5 hour; concentration not given beside the values
Conditions: HepG2 cells, read-out: Inhibition

| Compound | cytotoxicity at 70.5 h [%] |
| --- | --- |
| Cc1cc(C[C@@H]2COC[C@H]2NCc2ccccc2C(F)(F)F)on1 | -11 |
| O=C(CN1CCSCC1c1ccccc1)N1CCCC1 (stereo not given) | 20 |
| COc1ccccc1OCCCn1c(C)c(C)oc1=O | 2.36 |
| CCNc1nc(C(=O)N(C)Cc2nc(CC)no2)cs1 | -109 |
| Cc1cc(NC(=O)NCC2(O)CCCC2)ccn1 | -14 |
| Cc1cc(C2CCCN(CC(=O)Nc3nc4c(s3)CCC4)C2)n[nH]1 (stereo not given) | 18.9 |
| CC1CCN(c2ccc(CNC(=O)NCCn3ccnc3)cn2)CC1 | -0.689 |
| COC(=O)NCC(=O)NCC(C)(C)c1cccc(Br)c1 | -0.269 |
| COCC1CN(Cc2ccoc2)Cc2cn(C)nc21 (stereo not given) | -7.39 |
| Cc1ncc2c(n1)CN(CC(=O)Nc1ccncc1)CC2 | 1.41 |
| CC1=N[C@@]2(CC[C@@H]3CN(S(=O)(=O)N(C)C)C[C@@H]32)C(=O)N1CC(C)C | -7.17 |
| O=c1[nH]c2nc(N3CCOCC3)ncc2c(=O)n1-c1cccc(F)c1 | -2.92 |
| Cc1ccc(C(=O)NCc2cccnc2N(C)C)s1 | -10.9 |
| CC(=O)c1cccc(NC(=O)NCCCc2nc(C(C)C)no2)c1 | -1.88 |
| Cc1nn(C)c(C)c1C1COCCN1C(=O)CC(C)(C)C (stereo not given) | 24.2 |
| Cc1ccc(CN2CCOC(C)(c3cnn(C)c3)C2)cc1 (stereo not given) | -2.83 |
| Cc1ccc(S(=O)(=O)Nc2ccc(N3CCOCC3)cn2)cc1 | -3.69 |
| COCCn1ccc(=O)c(OCC(=O)Nc2cccc(OC)c2)c1C | 13.8 |
| CC(C)(C)C(=O)NS(=O)(=O)c1ccc(C#N)c(C(F)(F)F)c1 | 7.04 |
| CCc1cc(=O)n(CC(=O)N2CCC(C)CC2)c(-c2cccc(F)c2)n1 | -3.1 |
| Cc1noc(C2CCCN(C(=O)c3cccc(Cl)c3)C2)n1 (stereo not given) | -0.713 |
| OC(CNCCn1cccn1)c1cccc(Br)c1 (stereo not given) | -8.75 |
| CC(=O)OCc1ccc(CN2CCCCCC2c2cc(C)no2)o1 (stereo not given) | 24.7 |

| Compound | cytotoxicity at 70.5 h [%] |
| --- | --- |
| COc1ccccc1Oc1cncc(C2CCCN(CC(N)=O)C2)n1 (stereo not given) | 11.9 |
| CC(C)Oc1ncc(C(=O)N2CCCC(C(=O)O)C2)cc1Cl (stereo not given) | -7.98 |
| Cc1nc(CNC(=O)NCC(F)(F)F)oc1C | 3.56 |
| CN(CCc1ccccc1)Cc1cc(C(=O)N2CCSCC2)no1 | -3.85 |
| CC(C)C1CN(c2ncccc2Cl)CCC(=O)N1Cc1ccc(F)cc1 (stereo not given) | 4.1 |
| COc1ccc(-n2nnnc2C2(NCc3ccco3)CCCCC2)cc1 | -9.96 |
| Cc1nc(CN2CCCC(CCc3cccc(C(F)(F)F)c3)C2)co1 (stereo not given) | -3.79 |
| Cc1csc(C2CCCN(C(=O)c3cnn4ccc(C)nc34)C2)n1 (stereo not given) | -8.34 |
| CCOc1ccc(C(F)(F)F)cc1NC(=O)NCc1noc(C)n1 | -8.58 |
| N#Cc1ccccc1C(=O)N1C[C@@H](CN2CCOCC2)[C@@H](CO)C1 | -12 |
| CC(OCC1CC1)C(=O)NCc1cccc(CN2CCN(C)CC2)c1 (stereo not given) | 5.66 |
| Cc1ccccc1CN1CCOC(c2nccc(CN(C)C)n2)C1 (stereo not given) | -8.08 |
| O=C(Cc1cnc(-c2c(Cl)cccc2Cl)s1)N1CCC2(CC1)OCCO2 | -14.1 |
| CC(C(=O)NCC(F)(F)F)N1CCC(N2CCN(C)C2=O)CC1 (stereo not given) | -8.46 |
| Cc1nc(CC(=O)N2CCCC2c2nc(C(C)C)no2)cs1 (stereo not given) | -6.42 |
| CN1CC(C(=O)N2CCC(Oc3ccccc3Cl)CC2)CC1=O (stereo not given) | -1.46 |
| CN(C)S(=O)(=O)N1CCCC(c2cccc(Cc3ccccc3)n2)C1 (stereo not given) | 19 |
| N#Cc1ncn(CCC(=O)Nc2cc(Cl)ccc2Cl)n1 | -4.2 |
| O=C(c1cccc2ncccc12)N1CCCC(n2ccnc2)C1 (stereo not given) | -2.04 |
| Cc1nnc(N2C[C@@H](Oc3ccccn3)[C@H]3OCCC[C@H]32)s1 | -4.15 |
| COCCNC(=O)c1cc(C)nc(C2CCN(C)CC2)n1 | -3.41 |
| O=C(O)c1cc2c(nc1N1CCOCC1)CCN(C1CCOC1)CC2 (stereo not given) | -4.23 |
